Patent publication US11059830B2, “Compounds that participate in cooperative binding and uses thereof” (Revolution Medicines, Inc., priority 2015, dated 2021)

Target: FKBP12 (Homo sapiens (Human), UniProt P62942)
Assay: SPR kinetics of Compound 2 and Compound 6 binding to immobilized FKBP12 (Example 8)
Settings: compound to immobilized FKBP12, 25° C.
Description: This protocol utilizes Surface Plasmon Resonance (SPR) as a method to determine kinetics (KD, Ka, Kd) for the binding of Compound 2 and Compound 6 (analyte) to immobilized FKBP12 (ligand).
Compound 2 and Compound 6 in 100% DMSO (in-house), 10×HBS-P+ buffer (GE Healthcare BR-1006-71), Assay buffer (1×HBS-P+ buffer, 1% DMSO), 12×HIS tagged FKBP12 (in-house).
Experiments are performed at 25° C. Stock solution of 12×HIS tagged FKBP12 is diluted to 100 nM in assay buffer (1% DMSO final). Approximately 500-600 RU of FKBP12 is immobilized on one of two flow cells of an activated NTA chip. The second flow cell is not activated as a reference for non-specific interaction of the analyte to the sensor chip. Various concentrations of Compound 2 or Compound 6 (1 nM-1 μM range), serially diluted into the same assay buffer (1% DMSO final), are injected onto the FKBP12 surface and reference surface at a flow rate of 10 μl/min. The surface is regenerated between analyte injections with 350 mM EDTA.
The BiaEvaluation software program is used for data fitting. All data is reference subtracted against both the reference flow cell and a buffer injection. For kinetic analyses, data is locally fit to a 1:1 interaction model.

FKBP12, sequence (P62942 whole entry): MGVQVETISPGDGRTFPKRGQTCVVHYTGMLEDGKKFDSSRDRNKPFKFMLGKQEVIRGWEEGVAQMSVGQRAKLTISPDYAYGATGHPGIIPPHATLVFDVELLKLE

CC[C@H](Cc1ccccc1)[C@@H]1/C=C/C/C=C/C[C@@H](C)[C@H](O)[C@@H](C)[C@@H]2CC[C@@H](C)C(=O)C(O)(O2)C(=O)N2CCCC[C@H]2C(=O)O1 [Compound 2]
Kd: 0.0132 µM | koff: 0.000594 s⁻¹ | kon (read-out: Ka): 45000 M⁻¹ s⁻¹
